Results taken from paper PMC3589280 (Channels, 2013).

What was measured:
[1] = biological target: T1, rBASIC (rat bile acid-sensitive ion channel) (Rattus norvegicus, UniProt Q9R0W5); assay: oocyte current recording, co-application; format: cell-based; conditions: 0.5 mM CDCA co-applied with 1.0 mM UDCA; CDCA not tested alone here
T1 sequence (Q9R0W5 1-495): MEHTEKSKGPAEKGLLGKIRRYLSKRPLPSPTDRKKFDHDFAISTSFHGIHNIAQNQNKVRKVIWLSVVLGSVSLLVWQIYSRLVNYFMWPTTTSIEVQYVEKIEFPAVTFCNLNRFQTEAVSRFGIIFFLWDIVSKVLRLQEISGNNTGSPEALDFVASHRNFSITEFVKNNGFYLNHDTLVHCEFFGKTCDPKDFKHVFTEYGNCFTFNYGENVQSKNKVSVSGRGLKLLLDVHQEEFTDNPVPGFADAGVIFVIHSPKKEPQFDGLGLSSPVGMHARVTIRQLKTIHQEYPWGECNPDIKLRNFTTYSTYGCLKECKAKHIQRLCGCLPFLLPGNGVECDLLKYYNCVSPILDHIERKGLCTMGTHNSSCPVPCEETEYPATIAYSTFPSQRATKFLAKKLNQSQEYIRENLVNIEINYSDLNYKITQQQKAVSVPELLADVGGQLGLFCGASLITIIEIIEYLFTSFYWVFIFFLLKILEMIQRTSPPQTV

[2] = biological target: T1, rBASIC (rat bile acid-sensitive ion channel); assay: oocyte current recording, concentration-response, Hill fit; format: cell-based

Row | EC50 [2] | SMILES | oocyte current recording, co-application [1]
1 |  | C[C@H](CCC(=O)O)[C@H]1CC[C@H]2[C@@H]3[C@H](O)C[C@@H]4C[C@H](O)CC[C@]4(C)[C@H]3CC[C@]12C [CDCA] | CDCA and UDCA synergistically activate rBASIC
2 | 2100 ± 40 µM | C[C@H](CCC(=O)O)[C@H]1CC[C@H]2[C@@H]3C[C@H](O)[C@@H]4C[C@H](O)CC[C@]4(C)[C@H]3CC[C@]12C [HDCA] | 
3 | 2500 ± 40 µM | C[C@H](CCC(=O)O)[C@H]1CC[C@H]2[C@@H]3[C@@H](O)C[C@@H]4C[C@H](O)CC[C@]4(C)[C@H]3CC[C@]12C [UDCA] | 
